The test system of data set [1] is Human immunodeficiency virus 1. The data set can be described thus: Antiviral activity against HIV1 infected in H9 cells assessed as reduction in viral replication. Format: functional, organism-based. The following applies: Human immunodeficiency virus 1, H9.
The subject of data set [2] is SARS-CoV-2. The data set is described as follows: Antiviral activity against SARS-CoV-2 infected in African green monkey Vero E6 cells assessed as reduction in viral replication incubated for 24 hrs by Immunofluorescence assay. It counts as functional, organism-based. The settings on record: Severe acute respiratory syndrome coronavirus 2, Vero C1008, 24 h.
A further data set has as its system Influenza A virus. The data set can be described thus: Antiviral activity against influenza A virus H1N1 infected in MDCK cells assessed as reduction in virus induced cytopathic effect by CPE assay. It counts as functional, organism-based.
A further data set has as its system Influenza B virus. The data set can be described thus: Antiviral activity against Influenza B virus assessed as inhibition of virus-induced cytopathic effect. Format: functional, organism-based. (Cytopathic effects are the visible damage that an infection or toxin causes in cultured cells.)
The next data set has as its system dengue virus type 2. The data set can be described thus: Antiviral activity against DENV-2 infected in human Huh-7 cells at MOI of 0.05 assessed as log reduction of intracellular viral titre measured after 60 hrs post infection by RT-PCR analysis. It counts as functional, organism-based. The settings on record: Huh-7, 60 h.
The test system of data set [3] is Human immunodeficiency virus 1. The data set can be described thus: Antiviral activity against HIV1 TC-1 infected in human PBMC assessed as inhibition of viral replication. The settings on record: Human immunodeficiency virus 1, TC-1, PBMC. Format: functional, organism-based.
The test system of data set [4] is Hepatitis C virus. The data set can be described thus: Antiviral activity against HCV infected in human Huh-7 cells assessed as reduction in viral infection incubated for 72 hrs by qRT-PCR analysis. The settings on record: Huh-7, 72 h. It counts as functional, organism-based, Hepacivirus hominis.
In the next data set the test system is Dengue virus. The data set is described as follows: Antiviral activity against Dengue virus assessed as inhibition of viral replication. It counts as functional, organism-based.
Data set [5] deals with West Nile virus. The data set can be described thus: Antiviral activity against West Nile virus infected in human A549 cells assessed as reduction in virus replication incubated for 72 hrs by MTS assay. Format: functional, organism-based. The following applies: A549, 72 h. For orientation: Tetrazolium dyes change colour on reduction, which living cells bring about.
Data set [6] in a line: Cytotoxicity against African green monkey Vero cells assessed as reduction in cell growth incubated for 72 hrs by MTT assay. Format: toxicity, cell-based. The settings on record: chlorocebus sabaeus.
A further data set has as its system Yellow fever virus. The data set can be described thus: Antiviral activity against Yellow fever virus African green monkey Vero cells assessed as reduction in cytopathic effect. It counts as functional.
The subject of data set [7] is West Nile virus. The data set can be described thus: Antiviral activity against West Nile virus infected in African green monkey Vero 76 cells assessed as reduction in cytopathic effect. It counts as functional.
The subject of data set [8] is Western equine encephalitis virus. The data set can be described thus: Antiviral activity against Western equine encephalomyelitis virus infected in African green monkey Vero cells assessed as reduction in cytopathic effect. Format: functional.
Data set [9] relates to Vesicular stomatitis virus. The data set is described as follows: Antiviral activity against Vesicular stomatitis virus infected in human A549 cells assessed as reduction in virus replication. Format: functional.
The test system of another data set is Hepatitis B virus. The data set is described as follows: Antiviral activity against HBV genotype A infected in human HepG2 cells assessed as inhibition of viral replication. Format: functional, organism-based.
Another data set has as its system Chikungunya virus. The data set is described as follows: Antiviral activity against CHIKV infected in Vero 76 cells assessed as reduction in cytopathic effect. It counts as functional, organism-based.
For data set [10], the system named is SARS-CoV-2. The data set is described as follows: Antiviral activity against SARS-CoV-2 B.1.1.7 infected in human Calu-3 cells assessed as inhibition of viral infection measured after 48 hrs by Hoechst 33342 staining based analysis. It counts as functional, organism-based. The following applies: Severe acute respiratory syndrome coronavirus 2, B.1.1.7, Calu-3, 48 h.

The subject of data set [11] is SARS-CoV-2. The data set can be described thus: Antiviral activity against SARS-CoV-2 […] B.1.351 Beta infected in human Calu-3 cells assessed as reduction of viral growth measured after 48 hrs by luciferase assay. It counts as functional, organism-based. The settings on record: Severe acute respiratory syndrome coronavirus 2.
For data set [12], the system named is Respiratory syncytial virus. The data set is described as follows: Antiviral activity against RSV infected in human HepG2 cells assessed as inhibition of virus induced cytopathic effect measured for 60 mins by MTT assay. It counts as functional, organism-based. The settings on record: HepG2, 1 h.
In data set [13] the test system is Human immunodeficiency virus 1. The data set is described as follows: Antiviral activity against HIV-1 3B infected in human MT4 cells assessed as reduction in virus induced cytopathic effect incubated for 5 days by Cell Titer Glo luminescent assay. The settings on record: Human immunodeficiency virus 1, 3B, MT4, 120 h. Format: functional, organism-based.
The test system of data set [14] is Hepatitis C virus. The data set is described as follows: Antiviral activity against Hepatitis C virus infected in Huh7.5 cells assessed as reduction in viral growth. Format: functional, organism-based, Hepacivirus hominis.
Data set [15] deals with Respiratory syncytial virus. The data set can be described thus: Antiviral activity against RSV A2 infected in human HepG2 cells assessed as inhibition of virus induced cytopathic effect measured after 72 hrs by MTT assay. The settings on record: HepG2, 72 h. Format: functional, organism-based.
The test system of data set [16] is Hepatitis C virus. The data set is described as follows: Antiviral activity against HCV infected in human Huh-7 cells assessed as reduction in viral infection. It counts as functional, organism-based, Hepacivirus hominis.
For a further data set, the system named is Ebolavirus. The data set can be described thus: Antiviral activity against Ebola virus infected in African green monkey Vero cells incubated for 3 days by immunofocus assay. Format: functional, organism-based. The following applies: Orthoebolavirus, 72 h.
Data set [17] can be described thus: Cytotoxicity against African green monkey Vero cells assessed as reduction in cell viability measured after 72 hrs by MTT assay. Format: toxicity, cell-based. The settings on record: chlorocebus sabaeus.
The subject of another data set is H9. The data set can be described thus: Antitumor activity against human H9 cells assessed as cell growth inhibition. It counts as functional, cell-based.

≈ marks a conversion by molar mass, not a printed value. Where only a bound is given, the exact number is not on record here.

As a reminder, the EC50 is the concentration that produces a half-maximal response. With `COc1ccccc1NC(=O)c1ccccc1Sc1ccc([N+](=O)[O-])cc1`, the EC50 in data set [1] was determined as 6000 nM.

For the compound `CONC(=O)[C@H]1[C@@H](O)[C@@]2(O)c3c(OC)cc(OC)cc3O[C@@]2(c2ccc(OC)cc2)[C@@H]1c1ccccc1`, the concentration giving a half-maximal response (EC50) in the data set on SARS-CoV-2 [2] turned out to be 1.82 nM.

For `O=C(Nc1cccnc1)c1cccs1`, the EC50 with Influenza A virus and in the data set on Influenza B virus was 2300 nM in each case.

Take `CN(/N=C/c1ccccc1C(=O)O)c1nc(-c2ccccc2Cl)cs1`: the EC50 in the data set on dengue virus type 2 was 17 nM.

Consider `CCCCc1cn(-c2ccc(NC(=O)Nc3ccccc3C)cc2)nn1`, for which the EC50 (in data set [3]; with Hepatitis C virus [4]; with Dengue virus; with West Nile virus [5]) was 970 nM throughout.

The CC50 is the concentration at which the toxic effect on the cells reaches its halfway point. What is called EC90 is the concentration needed for an effect of 90%. Turning to `COC(=O)c1c(-c2c(Cl)cccc2Cl)noc1-c1cnn(-c2cccc(Cl)c2)c1C(F)(F)F`, the CC50 at 72 h in data set [6] came to 5000 nM. For the same compound, the EC90 with Yellow fever virus stood at 12.8 nM; in the data set with West Nile virus [7], 0.31 nM; in data set [8], 33.8 nM; in data set [9] it was 38.7 nM.

As a reminder, the IC50 is the concentration at which inhibition is half-maximal. Take `CC[C@@H]1NC(=O)[C@H]([C@@H]2O[C@@H](Sc3cccc(OCc4ccccc4)c3)C[C@H]2C)N(C)C(=O)[C@H](C(C)C)N(C)C(=O)[C@H](CC(C)C)N(C)C(=O)[C@H](CC(C)C)N(C)C(=O)[C@@H](C)NC(=O)[C@H](C)NC(=O)[C@H](CC(C)C)N(C)C(=O)[C@H](C(C)C)NC(=O)[C@H](CC(C)C)N(C)C(=O)CN(C)C1=O`: in the data set on Hepatitis B virus, the IC50 was found to be 110 nM.

As to `COc1cc2c(cc1C(=O)Nc1ccc(C(C)(C)C#N)cc1)CCCCC2`, the EC50 in the data set with Chikungunya virus came out at 270 nM.

As to `CS(=O)(=O)N[C@@H](CCC(N)=O)C(=O)N[C@@H](Cc1ccccc1)C(=O)N[C@@H](CCCNC(=N)N)C(=O)c1nc2ccccc2s1`, the IC50 in the data set on SARS-CoV-2 [10] and in the data set with SARS-CoV-2 [11] was 1.9 nM each time.

Take `COCCNC(=O)[C@@H]1C[C@@H](Sc2nc3ccccc3[nH]2)CN1Cc1ccc2c(c1)Cc1ccccc1-2`: the EC50 (in data set [12]; in [13]; with Hepatitis C virus [14]; in data set [15]) was 2 nM in each case.

With `C/C=C/C[C@@H](C)[C@@H](O)[C@H]1C(=O)N[C@@H](CC)C(=O)N(C)C(C)C(=O)N(CC)[C@@H](CC(C)C)C(=O)N[C@@H](C(C)C)C(=O)N(C)[C@@H](CC(C)C)C(=O)N[C@@H](C)C(=O)N[C@H](C)C(=O)N(C)[C@@H](CC(C)C)C(=O)N(C)[C@@H](CC(C)C)C(=O)N(C)[C@@H](C(C)C)C(=O)N1C` (some centres not stated), the EC50 with Hepatitis C virus [16] is 0.27 µg/mL (≈ 0.219 µM).

Turning to `CCCCCN(CC)c1ccc(Oc2ccc(-c3c(C)c(=O)c4c(F)cccc4n3C)cc2F)cc1`, it took 7 nM to reach half-maximal inhibition with Ebolavirus (IC50). Further, in data set [17], the CC50 at 72 h was found to be 10700 nM.

As to `CCN(CC)S(=O)(=O)c1ccc(OC)c(NC(=O)Cc2ccccc2[N+](=O)[O-])c1`, the EC50 in data set [1] stood at 25000 nM. In addition, in the data set on H9, the IC50 was above 100000 nM.
